In patent US20240390471A1, “COMPOUNDS AND ADJUVANT FORMULATIONS USEFUL IN PNEUMOCOCCAL VACCINES” (Merck Sharp & Dohme LLC, priority 2023, published 2024):

Legend:
human TLR7 = biological target: T1, human TLR7 (Homo sapiens, UniProt Q9NYK1); test: Cell-based TLR 7/8 assay, HEK-Blue TLR7 cells (SEAP reporter); details: based on Compound concentration only; Compounds formulated as SNEs; read-out: huTLR7 EC50 (converted)
T1 construct: host or cells: HEK-Blue 293 cells expressing human TLR7
T1 sequence (Q9NYK1 27-1049): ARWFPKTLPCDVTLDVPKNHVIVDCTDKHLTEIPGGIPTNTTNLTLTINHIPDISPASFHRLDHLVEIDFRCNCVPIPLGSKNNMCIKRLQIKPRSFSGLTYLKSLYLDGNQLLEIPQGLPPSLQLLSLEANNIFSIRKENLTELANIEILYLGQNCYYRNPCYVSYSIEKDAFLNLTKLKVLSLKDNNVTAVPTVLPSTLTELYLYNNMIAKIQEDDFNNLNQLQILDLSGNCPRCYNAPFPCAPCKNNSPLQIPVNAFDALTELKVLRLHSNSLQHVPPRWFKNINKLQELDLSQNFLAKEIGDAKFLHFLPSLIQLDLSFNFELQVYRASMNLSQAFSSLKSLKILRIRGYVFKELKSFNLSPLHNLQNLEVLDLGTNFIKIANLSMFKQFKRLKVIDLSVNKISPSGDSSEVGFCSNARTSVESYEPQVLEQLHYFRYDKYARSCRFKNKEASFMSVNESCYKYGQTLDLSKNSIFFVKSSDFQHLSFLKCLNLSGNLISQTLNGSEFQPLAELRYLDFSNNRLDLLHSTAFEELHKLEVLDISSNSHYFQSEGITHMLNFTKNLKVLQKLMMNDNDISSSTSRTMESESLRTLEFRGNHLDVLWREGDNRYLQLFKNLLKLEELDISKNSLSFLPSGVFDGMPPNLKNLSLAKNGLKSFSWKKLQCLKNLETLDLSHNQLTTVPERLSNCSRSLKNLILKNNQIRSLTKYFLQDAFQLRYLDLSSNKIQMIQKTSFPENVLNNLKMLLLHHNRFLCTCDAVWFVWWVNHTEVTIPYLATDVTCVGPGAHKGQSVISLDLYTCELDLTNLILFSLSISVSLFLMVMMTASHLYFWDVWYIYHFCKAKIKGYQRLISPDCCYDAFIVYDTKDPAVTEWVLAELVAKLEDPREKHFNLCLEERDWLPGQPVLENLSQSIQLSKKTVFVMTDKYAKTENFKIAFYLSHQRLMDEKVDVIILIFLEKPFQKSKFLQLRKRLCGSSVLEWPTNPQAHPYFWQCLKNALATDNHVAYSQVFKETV
Description: (§1) HEK-Blue™ TLR7 and TLR8 cells (InvivoGen) were designed to assess the stimulation of TLR7 and TLR8 by monitoring the activation of NF-κB and AP-1. Compound B-1-SNE samples were diluted 1:2 across an 8-point titration in diluent buffer histidine/PS-20 in a sterile V-bottom plate. 20 μL of samples were transferred to corresponding wells of two flat bottom assay plates. Media was aspirated from HEK-Blue™ human TLR 7 and TLR 8 cells (T-75 flasks) and gently rinsed with pre-warmed (37° C.) DPBS for a total volume of 5 mL/flask. The DPBS was gently removed from the cells and cells were gently manually dislodged and resuspended in 2 mL of DPBS. Cell assay suspensions were then prepared at approximately 2.2×10^5 cells per mL of HEK-Blue™ detection medium (InvivoGen). 180 μL of cell suspension in detection medium was added to each well of the two flat bottom assay plates containing the diluted Compound B-1-SNE samples for a final dilution of sample equaling 1:10 (180 μL of cell suspension in detection medium and 20 μL of sample). The cells were then incubated at 37° C. in 5% CO2 for 20 hrs. The reporter gene, NF-Kb, induces the production of secreted embryonic alkaline phosphatase (SEAP) when stimulated and can be monitored using the vendor supplied SEAP detection kit. SEAP colorimetric changes were read at an absorbance of 640 nm using a SpectroMax Stakmax plate reader. […] EC50 values were calculated based on total Compound B-1-SNE concentration using GraphPad Prism Software and analyzed using agonist vs. response variable slope (four parameters) least squares fit.
(§2) Further to the description in Example 10, a cell-based activation system was used to assess activity of the Compound-formulated nanoemulsion systems, prepared as described in examples, supra. HEK-Blue™ TLR7 and TLR8 cells (InvivoGen) were designed to assess the stimulation of TLR7 and TLR8 by monitoring the activation of NF-κB and AP-1. Compound-SNE samples were diluted 1:2 across an 8-point titration in diluent buffer histidine/PS-20 in a sterile V-bottom plate. 20 μL of samples were transferred to corresponding wells of two flat bottom assay plates. Media was aspirated from HEK-Blue™ human TLR 7 and TLR 8 cells (T-75 flasks) and gently rinsed with pre-warmed (37° C.) DPBS for a total volume of 5 mL/flask. The DPBS was gently removed from the cells and cells were gently manually dislodged and resuspended in 2 mL of DPBS. Cell assay suspensions were then prepared at approximately 2.2×10^5 cells per mL of HEK-Blue™ detection medium (InvivoGen). 180 μL of cell suspension in detection medium was added to each well of the two flat bottom assay plates containing the diluted Compound-SNE samples for a final dilution of sample equaling 1:10 (180 μL of cell suspension in detection medium and 20 μL of sample). The cells were then incubated at 37° C. in 5% CO2 for 20 hrs. The reporter gene, NF-Kb, induces the production of secreted embryonic alkaline phosphatase (SLAP) when stimulated and can be monitored using the vendor supplied SLAP detection kit. SLAP colorimetric changes were read at an absorbance of 640 nm using a SpectroMax Stakmax plate reader. EC50s were calculated based on Compound concentration only, not total Compound-SNE concentration (Table 6) using GraphPad Prism Software and analyzed using agonist vs. response variable slope (four parameters) least squares fit.

human TLR8 = biological target: T2, human TLR8 (Homo sapiens, UniProt Q9NR97); test: Cell-based TLR 7/8 assay, HEK-Blue TLR8 cells (SEAP reporter); details: based on Compound concentration only; Compounds formulated as SNEs; read-out: huTLR8 EC50 (converted)
T2 construct: host or cells: HEK-Blue 293 cells expressing human TLR8
T2 sequence (Q9NR97 27-1041): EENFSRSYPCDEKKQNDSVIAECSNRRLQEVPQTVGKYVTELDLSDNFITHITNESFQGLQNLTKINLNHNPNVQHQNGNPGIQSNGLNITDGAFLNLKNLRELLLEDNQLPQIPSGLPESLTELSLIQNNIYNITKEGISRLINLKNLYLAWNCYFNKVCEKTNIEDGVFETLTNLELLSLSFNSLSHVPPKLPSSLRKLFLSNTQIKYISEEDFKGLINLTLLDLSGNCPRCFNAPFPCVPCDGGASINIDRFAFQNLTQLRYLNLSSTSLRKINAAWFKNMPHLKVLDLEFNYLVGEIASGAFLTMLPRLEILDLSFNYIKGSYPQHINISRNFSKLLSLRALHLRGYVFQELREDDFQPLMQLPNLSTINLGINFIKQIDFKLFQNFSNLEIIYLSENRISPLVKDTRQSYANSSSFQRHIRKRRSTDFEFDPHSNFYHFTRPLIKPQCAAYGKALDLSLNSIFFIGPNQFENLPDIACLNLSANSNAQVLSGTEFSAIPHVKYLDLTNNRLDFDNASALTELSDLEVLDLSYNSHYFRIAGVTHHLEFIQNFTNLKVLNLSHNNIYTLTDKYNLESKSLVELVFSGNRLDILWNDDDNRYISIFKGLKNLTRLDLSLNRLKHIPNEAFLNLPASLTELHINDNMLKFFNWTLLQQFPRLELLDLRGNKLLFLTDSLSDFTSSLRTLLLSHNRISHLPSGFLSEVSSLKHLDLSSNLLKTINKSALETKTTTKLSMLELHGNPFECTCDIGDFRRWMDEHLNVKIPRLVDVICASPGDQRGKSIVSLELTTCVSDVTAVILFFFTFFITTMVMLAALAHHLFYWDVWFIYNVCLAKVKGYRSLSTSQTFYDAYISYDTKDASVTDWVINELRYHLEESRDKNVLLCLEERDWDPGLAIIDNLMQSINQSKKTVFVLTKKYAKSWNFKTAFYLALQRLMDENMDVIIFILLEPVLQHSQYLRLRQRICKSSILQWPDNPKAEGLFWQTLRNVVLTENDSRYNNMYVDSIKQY
Description: as §1, §2

Structure (SMILES): CCCCCCCCCCCCCCCCCC(=O)NCCCCC(=O)N1CCN(c2ccc(Cn3nc4c(NCCCC)nc(N)nc4c3C)c(OC)c2)CC1 [Compound B-18, N-(5-(4-(4-((5-amino-7-(butylamino)-3-methyl-2H-pyrazolo[4,3-d]pyrimidin-2-yl)methyl)-3-methoxyphenyl)piperazin-1-yl)-5-oxopentyl)stearamide]
- EC50 (human TLR7): 0.316 µM
- EC50 (human TLR8): 0.215 µM

Structure (SMILES): CCCCCCCCCCCCCCCCCC(=O)NCCCC(=O)N(C)Cc1cc(OC)c(Cn2cc3nc(N)nc(NCCCC)c3n2)c(OC)c1 [Compound C-5, N-(4-((4-((5-amino-7-(butylamino)-2H-pyrazolo[4,3-d]pyrimidin-2-yl)methyl)-3,5-dimethoxybenzyl)(methyl)amino)-4-oxobutyl)stearamide]
- EC50 (human TLR7): 0.639 µM
- EC50 (human TLR8): 0.0932 µM

Structure (SMILES): CCCCCCCCCCCCCCCCCC(=O)NCCCCN(C)Cc1cc(OC)c(Cn2cc3nc(N)nc(NCCCC)c3n2)c(OC)c1 [Compound C-4, N-(4-((4-((5-amino-7-(butylamino)-2H-pyrazolo[4,3-d]pyrimidin-2-yl)methyl)-3,5-dimethoxybenzyl)(methyl)amino)butyl)stearamide]
- EC50 (human TLR7): 4.95 µM
- EC50 (human TLR8): 1.17 µM

Structure (SMILES): CCCCCCCCCCCCCCCCCC(=O)NCCCCCCC(=O)N1CCN(c2ccc(Cn3cc4nc(N)nc(NCCCC)c4n3)c(OC)c2)CC1 [Compound B-12, N-(7-(4-(4-((5-amino-7-(butylamino)-2H-pyrazolo[4,3-d]pyrimidin-2-yl)methyl)-3-methoxyphenyl)piperazin-1-yl)-7-oxoheptyl)stearamide]
- EC50 (human TLR7): 23.4 µM
- EC50 (human TLR8): 25.5 µM

Structure (SMILES): CCCCC/C=C\C/C=C\CCCCCCCC(=O)NCCCCN(C)Cc1cc(OC)c(Cn2cc3nc(N)nc(NCCCC)c3n2)c(OC)c1 [Compound C-1, (9Z,12Z)—N-(4-((4-((5-amino-7-(butylamino)-2H-pyrazolo[4,3-d]pyrimidin-2-yl)methyl)-3,5-dimethoxybenzyl)(methyl)amino)butyl)octadeca-9,12-dienamide]
- EC50 (human TLR7): 0.259 µM
- EC50 (human TLR8): 0.0955 µM

Structure (SMILES): CCCCCCCCCCCCCCCCCC(=O)NCCCCC(=O)N1CCN(c2cc(OC)c(Cn3cc4nc(N)nc(N[C@H](CO)CCC)c4n3)c(OC)c2)CC1 [Compound A-2, (S)—N-(5-(4-(4-((5-amino-7-((1-hydroxypentan-2-yl)amino)-2H-pyrazolo[4,3-d]pyrimidin-2-yl)methyl)-3,5-dimethoxyphenyl)piperazin-1-yl)-5-oxopentyl)stearamide]
- EC50 (human TLR7): 7.53 µM
- EC50 (human TLR8): 0.454 µM

Structure (SMILES): CCCCCCCCCCCCCCCCCC(=O)NCCC(=O)N1CCN(c2ccc(Cn3cc4nc(N)nc(NCCCC)c4n3)c(OC)c2)CC1 [Compound B-11, N-(3-(4-(4-((5-amino-7-(butylamino)-2H-pyrazolo[4,3-d]pyrimidin-2-yl)methyl)-3-methoxyphenyl)piperazin-1-yl)-3-oxopropyl)stearamide]
- EC50 (human TLR7): 3.07 µM
- EC50 (human TLR8): 0.401 µM

Structure (SMILES): CCCCCCCCCCCCCCCCCC(=O)NCCCOC(=O)N1CCN(c2ccc(Cn3cc4nc(N)nc(NCCCC)c4n3)c(OC)c2)CC1 [Compound D-3, 3-stearamidopropyl 4-(4-((5-amino-7-(butylamino)-2H-pyrazolo[4,3-d]pyrimidin-2-yl)methyl)-3-methoxyphenyl)piperazine-1-carboxylate]
- EC50 (human TLR7): 23.7 µM
- EC50 (human TLR8): 13.8 µM

Structure (SMILES): CCCCCCCCCCCCCCCCCC(=O)NCCCC(C)(C)C(=O)N1CCN(c2ccc(Cn3cc4nc(N)nc(NCCCC)c4n3)c(OC)c2)CC1 [Compound B-14, N-(5-(4-(4-((5-amino-7-(butylamino)-2H-pyrazolo[4,3-d]pyrimidin-2-yl)methyl)-3-methoxyphenyl)piperazin-1-yl)-4,4-dimethyl-5-oxopentyl)stearamide]
- EC50 (human TLR7): 135 µM
- EC50 (human TLR8): 11.9 µM

Structure (SMILES): CCCCCCCCCCCCCCCCCC(=O)NCCCCC(=O)N1CCC(c2ccc(Cn3cc4nc(N)nc(NCCCC)c4n3)c(OC)c2)CC1 [Compound B-6, N-(5-(4-(4-((5-amino-7-(butylamino)-2H-pyrazolo[4,3-d]pyrimidin-2-yl)methyl)-3-methoxyphenyl)piperidin-1-yl)-5-oxopentyl)stearamide]
- EC50 (human TLR7): 4.19 µM
- EC50 (human TLR8): 2.59 µM

Structure (SMILES): CCCCCCCCCCCCCC(=O)NCCCCN(C)Cc1cc(OC)c(Cn2cc3nc(N)nc(NCCCC)c3n2)c(OC)c1 [Compound C-2, N-(4-((4-((5-amino-7-(butylamino)-2H-pyrazolo[4,3-d]pyrimidin-2-yl)methyl)-3,5-dimethoxybenzyl)(methyl)amino)butyl)tetradecanamide]
- EC50 (human TLR7): 0.338 µM
- EC50 (human TLR8): 0.176 µM
